From the supplement of paper PMC10307832

Tests used:
Experiment in all cases: relative viability (nuclei count vs DMSO), 5 days (fraction); higher = more cells survive
CUDC-101 + OSI-027 = compound: C#Cc1cccc(Nc2ncnc3cc(OC)c(OCCCCCCC(=O)NO)cc23)c1 [CUDC-101] + COc1cccc2cc(-c3nc([C@H]4CC[C@H](C(=O)O)CC4)n4ncnc(N)c34)[nH]c12 [OSI-027] (partner 0.5 µM)
Method in brief: (§1)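 Values are medians from duplicate plates. Each reflects relative viability, defined as the nuclei count of treated wells over that of vehicle wells. Lung cancer cell lines in 1536-well plates were pin-tool dosed one day after seeding with one drug alone or with a fixed anchor-drug dose plus five library-drug doses (not always all listed) in √10 steps, then fixed, stained and imaged at 4× after 5 days.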

NVP-TAE684 + Crizotinib = compound: COc1cc(N2CCC(N3CCN(C)CC3)CC2)ccc1Nc1ncc(Cl)c(Nc2ccccc2S(=O)(=O)C(C)C)n1 [NVP-TAE684] + C[C@@H](Oc1cc(-c2cnn(C3CCNCC3)c2)cnc1N)c1c(Cl)ccc(F)c1Cl [Crizotinib] (partner 1 µM)
Method in brief: as §1

Vandetanib + Lapatinib = compound: COc1cc2/c(=N/c3ccc(Br)cc3F)nc[nH]c2cc1OCC1CCN(C)CC1 [Vandetanib] + CS(=O)(=O)CCNCc1ccc(-c2ccc3ncnc(Nc4ccc(OCc5cccc(F)c5)c(Cl)c4)c3c2)o1 [Lapatinib] (partner 2 µM)
Method in brief: as §1

Vandetanib + Linsitinib = compound: COc1cc2/c(=N/c3ccc(Br)cc3F)nc[nH]c2cc1OCC1CCN(C)CC1 [Vandetanib] + C[C@]1(O)C[C@@H](c2nc(-c3ccc4ccc(-c5ccccc5)nc4c3)c3c(N)nccn32)C1 [Linsitinib] (partner 1 µM)
Method in brief: as §1

Cell Line | relative viability (CUDC-101 + OSI-027; first compound 0.01 µM) | relative viability (CUDC-101 + OSI-027; first compound 0.03162 µM) | relative viability (CUDC-101 + OSI-027; first compound 0.1 µM) | relative viability (CUDC-101 + OSI-027; first compound 0.3162 µM) | relative viability (CUDC-101 + OSI-027; first compound 1 µM) | relative viability (NVP-TAE684 + Crizotinib; first compound 0.2 µM) | relative viability (NVP-TAE684 + Crizotinib; first compound 0.6325 µM) | relative viability (NVP-TAE684 + Crizotinib; first compound 2 µM) | relative viability (Vandetanib + Lapatinib; first compound 0.02 µM) | relative viability (Vandetanib + Lapatinib; first compound 0.06325 µM) | relative viability (Vandetanib + Lapatinib; first compound 0.2 µM) | relative viability (Vandetanib + Lapatinib; first compound 0.6325 µM) | relative viability (Vandetanib + Lapatinib; first compound 2 µM) | relative viability (Vandetanib + Linsitinib; first compound 0.02 µM) | relative viability (Vandetanib + Linsitinib; first compound 0.06325 µM) | relative viability (Vandetanib + Linsitinib; first compound 0.2 µM) | relative viability (Vandetanib + Linsitinib; first compound 0.6325 µM) | relative viability (Vandetanib + Linsitinib; first compound 2 µM)
NCI-H727 | 0.633 | 0.601 | 0.7 | 0.578 | 0.369 | 0.679 | 0.635 | 0.221 | 0.847 | 0.661 | 0.786 | 0.91 | 0.625 | 0.216 | 0.336 | 0.347 | 0.283 | 0.271
NCI-H838 | 0.411 | 0.354 | 0.431 | 0.523 | 0.391 | 0.962 | 0.78 | 0.522 | 0.937 | 0.953 | 0.958 | 0.958 | 0.99 | 1.02 | 1.07 | 1.02 | 1.01 | 1.01
NCI-H1355 | 0.393 | 0.385 | 0.411 | 0.416 | 0.309 | 1.09 | 0.978 | 0.568 | 0.984 | 0.926 | 0.963 | 1.05 | 0.924 | 0.732 | 0.732 | 0.551 | 0.812 | 0.755
NCI-H1437 | 0.857 | 0.876 | 0.886 | 0.952 | 0.662 | 0.818 | 1.06 | 0.795 | 0.758 | 0.767 | 0.764 | 0.76 | 0.806 | 0.994 | 0.971 | 1.04 | 1.01 | 0.966
NCI-H1563 | 0.732 | 0.751 | 0.783 | 0.728 | 0.675 | 0.771 | 0.79 | 0.651 | 0.957 | 0.882 | 1.39 | 0.953 | 1.03 | 1.24 | 1.06 | 1.18 | 1.19 | 1.11
NCI-H1651 | 0.707 | 0.67 | 0.746 | 0.912 | 0.679 | 0.893 | 0.836 | 0.836 | 0.776 | 0.834 | 0.743 | 0.698 | 0.846 | 1 | 0.87 | 0.956 | 0.873 | 0.806
NCI-H1666 | 0.85 | 0.867 | 0.837 | 0.857 | 0.739 | 1.07 | 0.841 | 0.526 | 0.59 | 0.658 | 0.444 | 0.739 | 0.629 | 0.836 | 0.817 | 0.793 | 0.641 | 0.619
NCI-H1734 | 0.641 | 0.577 | 0.638 | 0.608 | 0.38 | – | 0.7 | 0.424 | 0.951 | 1.02 | 1.11 | 1.04 | 0.991 | 0.849 | 0.891 | 0.849 | 0.89 | 0.848
NCI-H1755 | 0.624 | 0.729 | 0.794 | 0.781 | 0.571 | 0.991 | 0.893 | 0.681 | 1.06 | 0.978 | 0.983 | 1.02 | 1.01 | 0.985 | 0.939 | 0.922 | 0.974 | 0.936
